Laboratory results reported in patent US8410089B2, “Fused heterocyclic ring compound” (Takeda Pharmaceutical Company Limited, priority 2009, dated 2013).

Assays:
male Wistar fatty rats = experiment: Oral glucose tolerance test (OGTT), hypoglycemic action; format: in vivo, rat; details: 10 mg/kg oral; for blood glucose lowering rate (%): OGTT in WF rats, decrease rate of AUC0-120min with control group as 100%, **p ≦ 0.01 vs control; for plasma glucose AUC0-120 min: 22-week-old WF rats fasted overnight, glucose 1 g/kg oral 60 min after compound, control group 32734.2
Experimental: A hypoglycemic action of the compound of the present invention was examined in an oral glucose tolerance test (OGTT) using male Wistar fatty rats (WF rat, TAKEDA RABICS).
First, 22-week-old WF rats fasted overnight were divided into groups (6 per group), and blood samples were collected and used as plasma samples before drug administration (−60 min). Thereafter, 0.5% methylcellulose (control group) and a test compound was orally administered at 10 mg/kg. At 60 min after compound administration, each individual was loaded by oral administration of glucose at 1 g/kg, and the blood was drawn before glucose loading (0 min) and 10, 30, 60 and 120 min after loading. The plasma glucose concentration was measured using L type Waco Glu2 (Wako) and Hitachi automatic analyzer 7080 (Hitachi Instruments Service Co., Ltd.). The 0-120 min area under time curve (AUC0-120min) and the decrease rate when the control group was 100% were calculated from the plasma glucose values measured.

human GPR119 = molecular target: T1, human GPR119 (Homo sapiens, UniProt Q8TDV5); experiment: Human GPR119 agonist activity with increase of intracellular cAMP concentration as index (CRE-luciferase reporter assay in hGPR119/CRE-luc/CHO(dhfr-) cells); format: cell-based; details: 1 μM test compound, 2 hr incubation; luciferase activity with 10 μM N-[4-(methylsulfonyl)phenyl]-5-nitro-6-{4-[4-(trifluoromethoxy)phenoxy]piperidin-1-yl}pyrimidin-4-amine = 100%, DMSO = 0%
T1 construct: expressed in transfected cells
T1 sequence (Q8TDV5 1-335): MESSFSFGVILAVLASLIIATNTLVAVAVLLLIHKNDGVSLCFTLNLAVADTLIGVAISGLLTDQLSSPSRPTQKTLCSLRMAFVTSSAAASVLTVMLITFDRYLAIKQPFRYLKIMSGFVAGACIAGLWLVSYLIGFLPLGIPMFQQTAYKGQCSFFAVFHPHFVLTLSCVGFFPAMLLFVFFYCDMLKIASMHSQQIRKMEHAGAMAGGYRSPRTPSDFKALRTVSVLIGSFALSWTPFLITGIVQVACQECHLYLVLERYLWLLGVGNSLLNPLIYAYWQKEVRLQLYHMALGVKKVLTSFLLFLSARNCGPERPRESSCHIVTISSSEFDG
Experimental: Evaluation of Human GPR119 Agonist Activity with Increase of Intracellular Camp Concentration as Index
(1) Construction of Expression Plasmid of Human GPR119 Gene
Using High Fidelity RNA PCR Kit (Takara Bio Inc.), human GPR119 gene was cloned by PCR using cDNA library synthesized from human brain mRNA (Clontech) as a template and synthetic DNA having the following sequence. Primer 1 and Primer 2 were is prepared by adding cleavage sites for Sal I and Nhe I based on the base sequence information of human GPR119 gene.
PCR was performed using Pyrobest DNA polymerase (Takara Bio Inc.). The obtained PCR product was cloned to pUC118 (Takara Bio Inc.), and the base sequence was […] and digested with restriction enzymes Sal I, Nhe I. The obtained DNA fragment was inserted into an animal cell expression vector pAKKO-111H (plasmid same as pAKKO-1.111H described in Biochem. Biophys. Acta, Hinuma, S. et al., 1219, 251-259 (1994)) similarly digested with Sal I, Nhe I, whereby an expression plasmid pAKKO-111H/hGPR119 was prepared.
(2) Construction of Reporter Plasmid
Zeocin resistance gene was cloned by PCR using plasmid pcDNA3.1/Zeo (Invitrogen) as a template, synthetic DNA having the following sequences wherein cleavage sites for restriction enzymes Sal I and BamH I are added to before and after a region containing SV40 Ori and a region containing SV40pA, which are located at the upstream and downstream of Zeocin resistance gene of this plasmid, as a primer set, and KOD polymerase (TOYOBO).
The obtained PCR product was inserted into pCR-BluntII (Invitrogen). A fragment containing a Zeocine resistance gene obtained by digesting the plasmid with restriction enzymes Sal I and BamH I was inserted into plasmid pGL3(R2.2)-Basic Vector (promega) similarly digested with Sal I and Bam HI to give Zeocin resistance plasmid pGL3(R2.2)/Zeocin-Basic Vector.
A reporter plasmid containing 4 cAMP responsive elements (CRE) connected in tandem was prepared using the following 5′-terminal phosphorylated synthetic DNA.
First, a DNA fragment containing a CRE sequence obtained by annealing CRE-Upper and CRE-Lower and elongating with KOD polymerase was inserted into pCR-BluntII to give pCR-BluntII-CRE. A fragment cleaved from pCR-BluntII-CRE with restriction enzymes Kpn I and Hind III was inserted into pGL3(R2.2)/Zeocin-Basic Vector similarly digested with Kpn I and Hind III to give reporter plasmid pGL3(R2.2)/Zeocin-CRE-luc.
(3) Introduction of Human GPR119 Gene and Reporter Gene into CHO(dhfr-) Cells and Acquirement of Expressing Cell
CHO(dhfr-) cells in MEMα (minimum essential medium alpha) (Nikken bio medical laboratory) medium containing 10% fetal bovine serum, 100 U/mL penicillin and 100 μg/mL streptomycin (Invitrogen) were detached by a treatment with trypsin-EDTA (ethylenediaminetetraacetic acid) (Invitrogen), the cells were washed with PBS (Phosphate-buffered saline), centrifuged (1000 rpm, 5 min) and suspended in PBS at a cell density of 1×10^7 cells/mL. Then, DNA was introduced into the cell by a gene pulser (Bio-Rad) under the following conditions. That is, 1×10^7 cells, plasmid pGL3(R2.2)/Zeocin-CRE-luc (15 μg), which was obtained in (2) and linearized with BssH II, and pAKKO-111H (5 μg) were added in a 0.4 cm gap cuvette, and the mixture was electroporated at voltage […], capacitance 950 μF. The cells were placed in the above-mentioned medium, cultured for 24 hr, and the cells were detached and centrifuged. The cells were diluted to 250 cells/well, plated in a 96 well plate (Corning) and cultivated in a CO2 incubator at 37° C. to give a transformant. Then, forskolin was added to the obtained transformant and a strain (CRE-luc/CHO(dhfr-) cell) that induces luciferase expression was selected. […]

| SMILES | GPR119 agonist activity (%) at 1 μM concentration (human GPR119) | blood glucose lowering rate (%) (male Wistar fatty rats) | plasma glucose AUC0-120 min (male Wistar fatty rats) |
| --- | --- | --- | --- |
| CC(C)SC(=O)N1CCC(Oc2cc(N3CCc4cc(S(C)(=O)=O)ccc43)ncn2)CC1 [Example 35, S-(1-methylethyl)4-({6-[5-(methylsulfonyl)-2,3-dihydro-1H-indol-1-yl]pyrimidin-4-yl}oxy)piperidine-1-carbothioate] | 82% | 23.0** % | 25212.5 mg·min/dL |
| CCc1cnc(N2CCC(Oc3cc(N4CCc5cc(S(C)(=O)=O)ccc54)ncn3)CC2)nc1 [Example 33, 1-(6-{[1-(5-ethylpyrimidin-2-yl)piperidin-4-yl]oxy}pyrimidin-4-yl)-5-(methylsulfonyl)-2,3-dihydro-1H-indole] | 74% | 23.4** % | 25073.3 mg·min/dL |
| CC(C)SC(=O)N1CCC(Oc2cc(N3CCc4cc(NC(=O)CO)ccc43)ncn2)CC1 [Example 54, S-(1-methylethyl) 4-[(6-{5-[(hydroxyacetyl)amino]-2,3-dihydro-1H-indol-1-yl}pyrimidin-4-yl)oxy]piperidine-1-carbothioate] | 82% | – | – |
| CC(C)c1noc(N2CCC(N(c3cc(N4CCc5cc(S(C)(=O)=O)ccc54)ncn3)C(F)(F)F)CC2)n1 [Example 32, N-{1-[3-(1-methylethyl)-1,2,4-oxadiazol-5-yl]piperidin-4-yl}-6-[5-(methylsulfonyl)-2,3-dihydro-1H-indol-1-yl]-N-(trifluoromethyl)pyrimidin-4-amine] | 92% | – | – |
| CC(C)OC(=O)N1CCC(Oc2cc(N3CCc4cc(NC(=O)[C@H]5CCCO5)ccc43)ncn2)CC1 [Example 51, isopropyl 4-{[6-(5-{[(2R)-tetrahydrofuran-2-ylcarbonyl]amino}-2,3-dihydro-1H-indol-1-yl)pyrimidin-4-yl]oxy}piperidine-1-carboxylate] | 83% | – | – |
| CC(C)SC(=O)N1CCC(Oc2cc(N3CCc4cc(NC(=O)C5CCCO5)ccc43)ncn2)CC1 [Example 50, S-(1-methylethyl)4-{[6-(5-{[(2R)-tetrahydrofuran-2-ylcarbonyl]amino}-2,3-dihydro-1H-indol-1-yl)pyrimidin-4-yl]oxy}piperidine-1-carbothioate] | 85% | – | – |
| CC(C)OC(=O)N1CCC(n2ccc3c(N4CCc5cc(N6CCCC6=O)ccc54)ncnc32)CC1 [Example 10, 1-methylethyl 4-{4-[5-(2-oxopyrrolidin-1-yl)-2,3-dihydro-1H-indol-1-yl]-7H-pyrrolo[2,3-d]pyrimidin-7-yl}piperidine-1-carboxylate] | 93% | – | – |
| CC(C)c1noc(N2CCC(Oc3cc(N4CCc5cc(S(C)(=O)=O)ccc54)ncn3)CC2)n1 [Example 38, 1-[6-({1-[3-(1-methylethyl)-1,2,4-oxadiazol-5-yl]piperidin-4-yl}oxy)pyrimidin-4-yl]-5-(methylsulfonyl)-2,3-dihydro-1H-indole] | 79% | 24.8** % | 24612.5 mg·min/dL |
| CCc1cnc(N2CCC(Oc3cc(N4CCc5cc(NC(=O)CO)ccc54)ncn3)CC2)nc1 [Example 56, N-[1-(6-{[1-(5-ethylpyrimidin-2-yl)piperidin-4-yl]oxy}pyrimidin-4-yl)-2,3-dihydro-1H-indol-5-yl]-2-hydroxyacetamide] | 75% | – | – |
| CC(C)SC(=O)N1CCC(Oc2cc(N3CCc4cc(N5CCCC5=O)ccc43)ncn2)CC1 [Example 45, S-(1-methylethyl) 4-({6-[5-(2-oxopyrrolidin-1-yl)-2,3-dihydro-1H-indol-1-yl]pyrimidin-4-yl}oxy)piperidine-1-carbothioate] | 75% | – | – |
| CC(C)OC(=O)N1CCC(Oc2cc(N3CCc4cc(NC(=O)CO)ccc43)ncn2)CC1 [Example 55, isopropyl 4-[(6-{5-[(hydroxyacetyl)amino]-2,3-dihydro-1H-indol-1-yl}pyrimidin-4-yl)oxy]piperidine-1-carboxylate] | 84% | – | – |
| CC(C)(C)OC(=O)N1CCC(n2ccc3c(N4CCc5cc(S(C)(=O)=O)ccc54)ccnc32)CC1 [Example 3, tert-butyl 4-{4-[5-(methylsulfonyl)-2,3-dihydro-1H-indol-1-yl]-1H-pyrrolo[2,3-b]pyridin-1-yl}piperidine-1-carboxylate] | 87% | – | – |

Second part, led by results:

| GPR119 agonist activity (%) at 1 μM concentration (human GPR119) | SMILES | blood glucose lowering rate (%) (male Wistar fatty rats) | plasma glucose AUC0-120 min (male Wistar fatty rats) |
| --- | --- | --- | --- |
| 83% | CC(C)OC(=O)N1CCC(N(c2cc(N3CCc4cc(S(C)(=O)=O)ccc43)ncn2)C(F)(F)F)CC1 [Example 70, 1-methylethyl 4-[{6-[5-(methylsulfonyl)-2,3-dihydro-1H-indol-1-yl]pyrimidin-4-yl}(trifluoromethyl)amino]piperidine-1-carboxylate] | – | – |
| 77% | COc1cnc(N2CCC(N(c3cc(N4CCc5cc(S(C)(=O)=O)ccc54)ncn3)C(F)(F)F)CC2)nc1 [Example 72, N-[1-(5-methoxypyrimidin-2-yl)piperidin-4-yl]-6-[5-(methylsulfonyl)-2,3-dihydro-1H-indol-1-yl]-N-(trifluoromethyl)pyrimidin-4-amine] | – | – |
| 85% | CSC(=O)N1CCC(Oc2cc(N3CCc4cc(S(C)(=O)=O)ccc43)ncn2)CC1 [Example 61, S-methyl 4-({6-[5-(methylsulfonyl)-2,3-dihydro-1H-indol-1-yl]pyrimidin-4-yl}oxy)piperidine-1-carbothioate] | – | – |
| 82% | CC(C)SC(=O)N1CCC(N(c2cc(N3CCc4cc(S(C)(=O)=O)ccc43)ncn2)C(F)(F)F)CC1 [Example 71, S-(1-methylethyl) 4-[{6-[5-(methylsulfonyl)-2,3-dihydro-1H-indol-1-yl]pyrimidin-4-yl}(trifluoromethyl)amino]piperidine-1-carbothioate] | – | – |
| 77% | COCC(=O)Nc1ccc2c(c1)CCN2c1cc(OC2CCN(C(=O)OC(C)C)CC2)ncn1 [Example 59, isopropyl 4-[(6-{5-[(methoxyacetyl)amino]-2,3-dihydro-1H-indol-1-yl}pyrimidin-4-yl)oxy]piperidine-1-carboxylate] | – | – |
